{"source": "paper PMC8231654", "about": "“Evaluation of Cytotoxic and Mutagenic Effects of the Synthetic Cathinones Mexedrone, α-PVP and α-PHP” (International Journal of Molecular Sciences, 2021)", "key": {"[1]": {"details": "cited from earlier work; for mutagenic potential: psychoactive phenethylamines; for mutagenic capacity in terms of increasing the frequency of MNi: synthetic cannabinoids, first study of 2020"}, "[2]": {"system": "SERT", "set-up": "method as in PMID 27524685", "details": "rats' brain synaptosomes; read-out: releasing activity on SERT EC50; cited from earlier work"}, "[3]": {"system": "TK6 cells", "experiment": "In vitro micronucleus test by flow cytometry, with S9 mix", "assay_type": "cell-based, human", "details": "3 h + S9 mix, 23 h recovery, 75 and 100 µM", "experimental": "(§1) The analysis of the MNi frequency was performed using an automated protocol published by Lenzi et al..\n(§2) A total of 10,000 nuclei, derived from viable and proliferating cells, and the corresponding number of MNi were acquired and analyzed by Guava Incyte software. The discrimination between nuclei and MNi occurs on the basis of the different size and intensity of green fluorescence.\n(§3) The MNi frequency (number of MNi/10,000 nuclei) recorded in treated cultures were normalized on those recorded in the concurrent negative control cultures, accounted equal to 1 and expressed as MNi frequency fold increase.\nThe exogenous metabolic activation system employed is a co-factor-supplemented post-mitochondrial fraction (S9 mix) prepared from the livers of rats treated with enzyme-inducing agent Aroclor 1254. The final concentration of S9 in the culture medium was 0.75%.\n(§4) We used the clastogen MMC and the aneuploidogen VINB as positive controls in absence of S9 mix, while CP, a clastogen agent requiring metabolic activation, in presence of S9 mix."}, "[4]": {"system": "SERT", "set-up": "method as in PMID 27524685", "details": "monoamine uptake, rats' brain synaptosomes; cited from earlier work"}, "[5]": {"system": "TK6 cells", "experiment": "In vitro micronucleus test by flow cytometry, without S9 mix", "assay_type": "cell-based, human", "details": "26 h, 75 and 100 µM", "experimental": "as §1, §2, §3, §4"}, "[6]": {"system": "TK6 cells", "experiment": "Cytostasis analysis (Relative Population Doubling)", "assay_type": "cell-based, human", "details": "26 h; for Relative Population Doubling (RPD): mean ± SEM; for Cytostatic effect / RPD versus OECD threshold (55 ± 5%): all concentrations up to 100 µM", "experimental": "In parallel, always using the Guava ViaCount Reagent, the number of cells seeded at time 0 and the one measured at the end of the treatment time were used to check the correct replication and to calculate the Population Doublings (PD) values. Subsequently, the PD obtained in the control cultures was compared to that measured in the treated cultures obtaining the Relative Population Doublings (RPD). PD and RPD were calculated with the following formulas:(1) PD=logpost−initial cell number/initial cell number÷log2 (2) RPD=PD in treated cultures/PD in control cutures x 100\nSimilarly, to cytotoxicity, the cytostasis was checked, in order to verify that cell proliferation respected the threshold established by OECD guideline (55 ± 5%)."}, "[7]": {"system": "NET", "set-up": "method as in PMID 27524685", "details": "monoamine uptake, rats' brain synaptosomes; cited from earlier work"}, "[8]": {"system": "DAT", "set-up": "method as in PMID 27524685", "details": "monoamine uptake, rats' brain synaptosomes; cited from earlier work"}, "[9]": {"system": "TK6 cells", "experiment": "Cytotoxicity analysis (Guava ViaCount, cell viability)", "details": "26 h, 25-100 µM"}, "[10]": {"system": "TK6 cells", "experiment": "Apoptosis analysis (Guava Nexin assay)", "assay_type": "cell-based, human", "details": "26 h, all selected concentrations", "experimental": "The percentage of apoptotic cells was evaluated by the Guava Nexin Assay according to the procedure by Lenzi et al. and Cocchi et al..\nThe reagent contains the 7-aminoactinomycin D (7- AAD), a cells non-permeant dye that allows the discrimination between live and dead cells, and the Annexin-V-PE that allows the identification of apoptotic cells by binding to the phosphatidylserine on the cell surface.\n100 μL of reagent was added to 100 μL of cell suspension (~1 × 10^5 cells) and incubated for 20 min at RT. Then, a total of 2000 events were acquired and analyzed by Guava Nexin software.\nThe apoptotic cell percentages recorded in the cultures treated with synthetic cathinones different concentrations were normalized on those recorded in the untreated control cultures, accounted equal to 1 and expressed as apoptotic fold increase."}, "[11]": {"system": "mice", "details": "in mice; cited from earlier work"}, "[12]": {"system": "rats", "details": "in rats; cited from earlier work"}, "[13]": {"system": "dopamine transporter (DAT)", "set-up": "method as in PMID 25624004, PMID 27799294", "details": "reuptake inhibition, human embryonic kidney 293 cells; cited from earlier work"}, "[14]": {"system": "norepinephrine transporter (NET)", "set-up": "method as in PMID 25624004, PMID 27799294", "details": "reuptake inhibition, human embryonic kidney 293 cells; cited from earlier work"}, "[15]": {"system": "serotonin transporter (SERT)", "set-up": "method as in PMID 25624004, PMID 27799294", "details": "human embryonic kidney 293 cells; cited from earlier work"}, "[16]": {"system": "dopamine (DAT), norepinephrine (NET), and serotonin (SERT) transporters", "set-up": "method as in PMID 25624004, PMID 27799294", "details": "human embryonic kidney 293 cells; cited from earlier work"}, "[17]": {"set-up": "method as in PMID 26505776, PMID 29963212, PMID 33379373", "details": "human urine of a drug abuser; cited from earlier work"}, "[18]": {"system": "C2C12 myoblasts", "set-up": "method as in PMID 30925718", "details": "24 h, concentrations 10 to 20 times higher than in this paper; cited from earlier work"}, "[19]": {"set-up": "method as in PMID 23797910, PMID 26014283, PMID 27142261", "details": "in vitro studies; cited from earlier work"}}, "note": "Like-named read-outs stand apart in the source and are kept apart here.", "data": [{"smiles": "COc1cc(CCN)c(OC)cc1Br", "note": "[2C-B]", "values": [{"measurement": "mutagenic potential", "setting": "[1]", "value": "proved to be mutagen"}]}, {"smiles": "COc1ccc(OC)c(CCN)c1", "note": "[2C-H]", "values": [{"measurement": "mutagenic potential", "setting": "[1]", "value": "proved to be mutagen"}]}, {"smiles": "COc1cc(CCN)c(OC)cc1I", "note": "[2C-I]", "values": [{"measurement": "mutagenic potential", "setting": "[1]", "value": "proved to be mutagen"}]}, {"smiles": "COc1cc(CCNCc2ccccc2OC)c(OC)cc1Br", "note": "[25B-NBOMe]", "values": [{"measurement": "mutagenic potential", "setting": "[1]", "value": "proved to be mutagen"}]}, {"smiles": "CCCCCn1nc(C(=O)OC23CC4CC(CC(C4)C2)C3)c2ccccc21", "note": "[APINAC]", "values": [{"measurement": "mutagenic capacity in terms of increasing the frequency of MNi", "setting": "[1]", "value": "mutagenic capacity"}]}, {"smiles": "O=C(Oc1cccc2cccnc12)c1cn(CC2CCCCC2)c2ccccc12", "note": "[BB-22]", "values": [{"measurement": "mutagenic capacity in terms of increasing the frequency of MNi", "setting": "[1]", "value": "mutagenic capacity"}]}, {"smiles": "CNC(COC)C(=O)c1ccc(C)cc1", "note": "(stereo not shown) [Mexedrone, 3-methoxy-2-(methylamino)-1-(4-methylphenyl)propan-1-one]", "values": [{"measurement": "EC50", "setting": "[2]", "value": 2.5, "unit": "µM"}, {"measurement": "MNi frequency fold increase versus negative control", "setting": "[3]", "value": "statistically significant increase at both concentrations tested"}, {"measurement": "IC50", "setting": "[4]", "value": "~5.2", "unit": "µM"}, {"measurement": "MNi frequency fold increase versus negative control", "setting": "[5]", "value": "significant increase of the MNi frequency at both the concentrations tested"}, {"measurement": "Relative Population Doubling (RPD)", "setting": "[6]; 25 µM", "value": "97.0% ± 3.2"}, {"measurement": "Relative Population Doubling (RPD)", "setting": "[6]; 35 µM", "value": "92.0% ± 4.2"}, {"measurement": "Relative Population Doubling (RPD)", "setting": "[6]; 50 µM", "value": "88.4% ± 7.9"}, {"measurement": "Relative Population Doubling (RPD)", "setting": "[6]; 75 µM", "value": "95.2% ± 3.5"}, {"measurement": "Relative Population Doubling (RPD)", "setting": "[6]; 100 µM", "value": "90.1% ± 3.6"}, {"measurement": "Cytostatic effect / RPD versus OECD threshold (55 ± 5%)", "setting": "[6]", "value": "do not induce any cytotoxic or cytostatic effects"}, {"measurement": "IC50", "setting": "[7]", "value": "~8.8", "unit": "µM"}, {"measurement": "IC50", "setting": "[8]", "value": "~6.8", "unit": "µM"}, {"measurement": "Cell viability / cytotoxic effect versus negative control and OECD threshold (55 ± 5%)", "setting": "[9]", "value": "do not induce any cytotoxic or cytostatic effects"}, {"measurement": "Apoptosis fold increase versus negative control", "setting": "[10]", "value": "never reached a doubling"}]}, {"smiles": "O=C(NC12CC3CC(CC(C3)C1)C2)c1cn(CCCCCF)c2ccccc12", "note": "[STS-135]", "values": [{"measurement": "mutagenic capacity in terms of increasing the frequency of MNi", "setting": "[1]", "value": "mutagenic capacity"}]}, {"smiles": "C[C@H](N)C(=O)c1ccccc1", "note": "[cathinone]", "values": [{"measurement": "mutagenicity", "setting": "[11]", "value": "mutagenicity demonstrated"}]}, {"smiles": "CNC(C)C(=O)c1ccc(C)cc1", "note": "(stereo not shown) [mephedrone, 4-methyl-N-methyl cathinone]", "values": [{"measurement": "mutagenicity", "setting": "[12]", "value": "mutagenicity demonstrated"}]}, {"smiles": "CCCCC(C(=O)c1ccccc1)N1CCCC1", "note": "(stereo not drawn) [α-PHP, alpha-pyrrolidinohexanophenone]", "values": [{"measurement": "IC50", "setting": "[13]", "value": 0.02, "unit": "µM"}, {"measurement": "MNi frequency fold increase versus negative control", "setting": "[3]", "value": "statistically significant increase was observed only at the highest concentration tested"}, {"measurement": "IC50", "setting": "[14]", "value": 0.04, "unit": "µM"}, {"measurement": "MNi frequency fold increase versus negative control", "setting": "[5]", "value": "no statistically significant increase"}, {"measurement": "IC50", "setting": "[15]", "value": "> 10", "unit": "µM"}, {"measurement": "Relative Population Doubling (RPD)", "setting": "[6]; 25 µM", "value": "88.3% ± 1.3"}, {"measurement": "Relative Population Doubling (RPD)", "setting": "[6]; 35 µM", "value": "94.4% ± 1.7"}, {"measurement": "Relative Population Doubling (RPD)", "setting": "[6]; 50 µM", "value": "96.8% ± 3.2"}, {"measurement": "Relative Population Doubling (RPD)", "setting": "[6]; 75 µM", "value": "85.2% ± 3.5"}, {"measurement": "Relative Population Doubling (RPD)", "setting": "[6]; 100 µM", "value": "85.9% ± 5.6"}, {"measurement": "Cytostatic effect / RPD versus OECD threshold (55 ± 5%)", "setting": "[6]", "value": "do not induce any cytotoxic or cytostatic effects"}, {"measurement": "neurotransmitters release", "setting": "[16]", "value": "do not enhance neurotransmitters release"}, {"measurement": "number of glucuronide conjugates identified", "setting": "[17]", "value": 9}, {"measurement": "number of phase I metabolites identified", "setting": "[17]", "value": 19}, {"measurement": "Cell viability / cytotoxic effect versus negative control and OECD threshold (55 ± 5%)", "setting": "[9]", "value": "do not induce any cytotoxic or cytostatic effects"}, {"measurement": "Apoptosis fold increase versus negative control", "setting": "[10]", "value": "never reached a doubling"}]}, {"smiles": "CCCC(C(=O)c1ccccc1)N1CCCC1", "note": "(stereo not drawn) [α-PVP, alpha-pyrrolidinopentiophenone]", "values": [{"measurement": "IC50", "setting": "[13]", "value": 0.04, "unit": "µM"}, {"measurement": "MNi frequency fold increase versus negative control", "setting": "[3]", "value": "significant increase in MNi frequency at both concentrations tested"}, {"measurement": "IC50", "setting": "[14]", "value": 0.02, "unit": "µM"}, {"measurement": "MNi frequency fold increase versus negative control", "setting": "[5]", "value": "no statistically significant increase"}, {"measurement": "IC50", "setting": "[15]", "value": "> 10", "unit": "µM"}, {"measurement": "Relative Population Doubling (RPD)", "setting": "[6]; 25 µM", "value": "91.5% ± 5.9"}, {"measurement": "Relative Population Doubling (RPD)", "setting": "[6]; 35 µM", "value": "88.4% ± 6.8"}, {"measurement": "Relative Population Doubling (RPD)", "setting": "[6]; 50 µM", "value": "88.7% ± 7.1"}, {"measurement": "Relative Population Doubling (RPD)", "setting": "[6]; 75 µM", "value": "89.9% ± 4.6"}, {"measurement": "Relative Population Doubling (RPD)", "setting": "[6]; 100 µM", "value": "87.6% ± 6.3"}, {"measurement": "Cytostatic effect / RPD versus OECD threshold (55 ± 5%)", "setting": "[6]", "value": "do not induce any cytotoxic or cytostatic effects"}, {"measurement": "mitochondrial superoxide production", "setting": "[18]", "value": "statistically significant increase in mitochondrial superoxide production"}, {"measurement": "neurotransmitters release", "setting": "[16]", "value": "do not enhance neurotransmitters release"}, {"measurement": "number of phase I metabolites identified", "setting": "[19]", "value": 6}, {"measurement": "Cell viability / cytotoxic effect versus negative control and OECD threshold (55 ± 5%)", "setting": "[9]", "value": "do not induce any cytotoxic or cytostatic effects"}, {"measurement": "Apoptosis fold increase versus negative control", "setting": "[10]", "value": "never reached a doubling"}]}]}
